Measurements published in PubChem BioAssay (NCI).
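How tested: cells in 96-well plates exposed to compound for 48 hours at five concentrations. At the GI50, growth is halved. TGI: concentration producing complete growth inhibition.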

Key:
Assay in all cases: NCI anticancer screen, dose series, 48 h
OVCAR-4 ovarian = test system: OVCAR-4 ovarian
OVCAR-8 ovarian = test system: OVCAR-8 ovarian
UACC-62 melanoma = test system: UACC-62 melanoma
SW-620 colon = test system: SW-620 colon
NCI-H460 lung = test system: NCI-H460 lung
HCC-2998 colon = test system: HCC-2998 colon
UO-31 renal = test system: UO-31 renal
SN12C renal = test system: SN12C renal
HOP-92 NSCLC = test system: HOP-92 NSCLC
A498 renal = test system: A498 renal

| SMILES | GI50 (OVCAR-4 ovarian) | TGI (OVCAR-4 ovarian) | GI50 (OVCAR-8 ovarian) | TGI (OVCAR-8 ovarian) | GI50 (UACC-62 melanoma) | TGI (UACC-62 melanoma) | GI50 (SW-620 colon) | TGI (SW-620 colon) | GI50 (NCI-H460 lung) | TGI (NCI-H460 lung) | GI50 (HCC-2998 colon) | TGI (HCC-2998 colon) | GI50 (UO-31 renal) | TGI (UO-31 renal) | GI50 (SN12C renal) | TGI (SN12C renal) | GI50 (HOP-92 NSCLC) | TGI (HOP-92 NSCLC) | GI50 (A498 renal) | TGI (A498 renal) |
| --- | --- | --- | --- | --- | --- | --- | --- | --- | --- | --- | --- | --- | --- | --- | --- | --- | --- | --- | --- | --- |
| CC/C(=C(/CC)c1ccc(O)cc1)c1ccc([O-])cc1.CC/C(=C(/CC)c1ccc(O)cc1)c1ccc([O-])cc1.O=C([CH-]C(=O)c1ccccc1)c1ccccc1.O=C([CH-]C(=O)c1ccccc1)c1ccccc1.[Ti+4] | 24.8 µM | > 100 µM | 21.5 µM | 46.3 µM | 6.61 µM | 25.5 µM | 6.35 µM | 19.1 µM | 13.1 µM | 25.8 µM | 12.2 µM | 24.6 µM | 21.8 µM | 38.6 µM | 14 µM | 26.9 µM | 14.2 µM | 27.2 µM |  |  |
| CCOc1ccc(Nc2nc(-c3ccc4c(c3)NC(=O)CO4)cs2)cc1 | 3.51 µM | > 100 µM | 4 µM | > 100 µM | 6.94 µM | 23.5 µM | 19.6 µM | > 100 µM | 4.37 µM | > 100 µM |  |  | 5.47 µM | > 100 µM | 49.4 µM | > 100 µM | 12.4 µM | > 100 µM | 13.6 µM | 55.4 µM |
| CC1(C)CCC[C@@]2(C)C1CC[C@H]1CC(O)C3(C)CCC12C3 (stereo partly drawn) |  | 31.9 µM |  | 32.6 µM |  | 29.2 µM |  | 30.8 µM |  | 32.8 µM |  | 34.1 µM |  | 33.3 µM |  | 30.7 µM |  | 30.5 µM |  |  |
| CCCC(C)C[C@@H](C)CC(C)/C=C(\C)c1oc(=O)c(C)c(O)c1C (stereo partly drawn) (tested in a mixture with another compound) |  | 26.6 µM |  | 39.7 µM |  |  |  | 35.1 µM |  | 25.1 µM |  | 25.5 µM |  | 27 µM |  | 29.1 µM |  |  |  |  |
| CCCCc1ccc(-n2c3nc(=O)n(C)c(=O)c-3nc3ccccc32)cc1 |  | 22 µM |  | 32.1 µM |  | 4 µM |  | 19.8 µM |  | 16.6 µM |  | 16.3 µM |  | 25.1 µM |  | 20.9 µM |  |  |  | 32.7 µM |
| CN(C)CC/C(=N\Nc1ccccc1)c1ccccc1 |  | 32.4 µM |  |  |  | > 100 µM |  |  |  |  |  | 58.9 µM |  | 22.8 µM |  |  |  | 36.5 µM |  |  |
| Cc1cccc(Cl)c1NC(=O)/C=C/c1ccccc1 |  | 70.1 µM |  | > 100 µM |  | > 100 µM |  | > 100 µM |  | > 100 µM |  | > 100 µM |  |  |  | > 100 µM |  | > 100 µM |  | > 100 µM |
| C=C(C)CN(CC#N)CC(=C)C |  | > 100 µM |  | > 100 µM |  | > 100 µM |  | > 100 µM |  |  |  | > 100 µM |  | > 100 µM |  | > 100 µM |  |  |  | > 100 µM |
| O=C1c2ccccc2C2(O)NC(=S)N(c3ccccc3)C12O (stereo not drawn) |  | > 100 µM |  | > 100 µM |  | > 100 µM |  | > 100 µM |  | > 100 µM |  | > 100 µM |  | > 100 µM |  |  |  | > 100 µM |  |  |
| COc1ccc2cc3[n+](cc2c1OC)CCc1cc(O)c(O)cc1-3 |  | > 100 µM |  | > 100 µM |  | > 100 µM |  | > 100 µM |  | > 100 µM |  |  |  | > 100 µM |  | > 100 µM |  | > 100 µM |  | > 100 µM |
| O=c1[nH]c2c3ccccc3ccc2c2cc3c(cc12)OCO3 |  | > 100 µM |  | > 100 µM |  | > 100 µM |  | > 100 µM |  | > 100 µM |  | > 100 µM |  | > 100 µM |  | > 100 µM |  |  |  |  |
